Assay results taken from patent US9018250B2, “Pharmaceutical composition and dosage form comprising dronedarone, and preparation method thereof” (Sanofi, priority 2010, dated 2015).
Converted amounts (≈) assume the structure as drawn. Like-named read-outs stand apart in the source and are kept apart here.

What was measured:
[1] = cited from earlier work
[2] = Solubility of dronedarone hydrochloride and base form in lipid excipients (Table A); format: physicochemical
[3] = In-vitro dissolution test with a jump in pH (simulated gastric pH 4, then simulated intestinal pH 6.5); format: physicochemical; details: for percentage of active principle released (dissolution curves, in words): pH 4 for 60 min, then pH 6.5 up to 180 min, FIG. 1-7
Text: In order to reproduce the effect of pH on the active principle and in particular on its dissolution during its passage through the gastrointestinal tract, a gastrointestinal environment was simulated by reproducing the pH of the stomach and then the pH of the intestine with a jump in pH. The dissolution kinetics was investigated using a simple in-vitro dissolution test with a jump in pH.
The principle consists of determining the dissolution of the formulated active principle by studying its dissolution kinetics at 37° C., firstly in simulated gastric medium at pH 4, then in simulated intestinal medium at pH 6.5, in a time interval consistent with the gastrointestinal tract.
Equipment: precision balance (Mettler AE200 or AT261), pH meter (Knick or Schott Geräte or Inolab), thermostated Dissolutest 6 or 7 bowls (Sotax AT6 or AT7), 5 μm filter (PALL Versapore 25 mm) with syringe (Térumo), UV spectrophotometer (Gilford Response II or Perkin Elmer) or HPLC (Merck or Agilent).
Dissolution media: The simulated physiological media representative of the gastrointestinal tract are obtained from simulated gastric and intestinal fluids recommended by the USP, but used without pepsin or pancreatin. • simulated gastric fluid—USP (without pepsin): • 2 g of sodium chloride per 900 ml of distilled water, • pH adjusted to 1.2 with concentrated hydrochloric acid (37%), • Q.S. 1000 ml with distilled water. • simulated intestinal fluid—USP (without pancreatin): • 6.8 g of potassium dihydrogen phosphate per 900 ml of distilled water, • pH adjusted to 7.5 with concentrated sodium hydroxide (10 M), • Q.S. 1000 ml with distilled water.
The simulated gastric medium of pH 4 is thus obtained by mixing the two simulated fluids in various proportions, monitoring with a pH electrode. The dissolution medium of the intestinal type is adjusted to pH 6.5 with a few drops of concentrated soda (10M) to simulate passage of the active principle into the beginning of the intestine, without leading to dilution.
Standard solutions of active principle are prepared in a solvent medium, preferably in the mobile phase or ethanol or methanol, and then analyzed at the characteristic wavelength of the active principle. A calibration straight line showing the concentrations as a function of the optical densities (analysis by UV spectrophotometry) or of the areas under peak (HPLC analysis) is then determined. The equation of the straight line obtained can be used for determining the concentration of dissolved active principle from measurement of the optical density or of the area under peak.
The concentration used corresponds to the dose in 250 ml (i.e. 4 capsules in a 500-ml bowl). The dissolution kinetics is first investigated in simulated gastric medium of pH 4 in the dissolution test in bowls thermostated at 37° C., with paddle stirring at 75 rpm, for 1 hour with sampling at times 5, 15, 30, 45 and 60 minutes, then in intestinal medium with an increase in pH to 6.5 by adding a small volume of concentrated soda (example: 0.400 ml for 500 ml of medium at pH 4), monitoring with a pH electrode. The kinetics is monitored for 3 hours with sampling at times 75, 90, 120 and 180 minutes and each sample is filtered at 5 μm and then analyzed.
Two methods of analysis can be used depending on the sensitivity required and the dosage form under investigation: UV spectrophotometry (for active principle only) or HPLC (for active principle only or formulated).
The concentration at a time t is determined based on the previously established calibration. During analysis by UV spectrophotometry, the whole absorption spectrum is monitored at least at the end of the kinetic study. In addition, the pH of the medium is monitored at the end of the kinetic study. […]

[4] = cited from earlier work; remark: listed apart in the source
[5] = Capmul PG8 (HLB 5), oil or lipid, in Capmul PG8 (HLB 5), RT, read-out: Solubility
[6] = Captex 355, oil or lipid, in Captex 355, RT, read-out: Solubility
[7] = Cremophor RH 40 (HLB 14), 55 °C, oil or lipid, in Cremophor RH 40 (HLB 14), 55° C., read-out: Solubility
[8] = Gelucire 33/01 (HLB 1), 55 °C, oil or lipid, in Gelucire 33/01 (HLB 1), 55° C., read-out: Solubility
[9] = Gelucire 43/01 (HLB 1), 55 °C, oil or lipid, in Gelucire 43/01 (HLB 1), 55° C., read-out: Solubility
[10] = Labrafac PG, oil or lipid, in Labrafac PG, RT, read-out: Solubility
[11] = Labrafil M1944Cs, oil or lipid, in Labrafil M1944Cs, RT, read-out: Solubility
[12] = Labrasol ALF, oil or lipid, in Labrasol ALF, RT, read-out: Solubility
[13] = Lauroglycol 90, oil or lipid, in Lauroglycol 90, RT, read-out: Solubility
[14] = Lipophilic Labrafac, oil or lipid, in Lipophilic Labrafac, RT, read-out: Solubility
[15] = Miglyol 812N, oil or lipid, in Miglyol 812N, RT, read-out: Solubility
[16] = PEG 400, organic solvent or mixture, in PEG 400, RT, read-out: Solubility
[17] = propylene glycol, organic solvent or mixture, in propylene glycol, RT, read-out: Solubility
[18] = soybean oil, oil or lipid, in soybean oil, RT, read-out: Solubility
[19] = surfactant Chrem RH40 (HLB 14), capsules G24 (HCl) / G25 (base)
[20] = surfactant Pluronic L44 (HLB 12), capsules G26 (HCl) / G27 (base), pH 6.5 after jump, 37° C.
[21] = surfactant Polox 188 (HLB 29), capsules G22 (HCl) / G23 (base)
[22] = surfactant Polox 407 (HLB 22), capsules G1 (HCl) / G5 (base)
[23] = surfactant Tween 60 (HLB 15), capsules G28 (HCl) / G29 (base)

CCCCc1oc2ccc(NS(C)(=O)=O)cc2c1C(=O)c1ccc(OCCCN(CCCC)CCCC)cc1 [Dronedarone Base, 2-n-butyl-3-[4-(3-di-n-butylaminopropoxy)benzoyl]-5-methylsulfonamidobenzofuran]
absolute bioavailability ([1]; taken with food): no more than 15% | absorption after oral administration ([1]; with a meal): at least 70% | solubility [2, 5]: 517 mg/mL (≈ 929 mM) | solubility [2, 6]: 167 mg/mL (≈ 299 mM) | solubility [2, 7]: > 313 mg/mL | solubility ([2]; Crodamol EO (ethyl oleate), oil or lipid, in Crodamol EO (ethyl oleate), RT, read-out: Solubility): 154 mg/mL (≈ 276 mM) | solubility [2, 8]: 371 mg/mL (≈ 667 mM) | solubility [2, 9]: 259 mg/mL (≈ 465 mM) | solubility ([2]; Gelucire 44/14 (HLB 14), 55 °C, oil or lipid, in Gelucire 44/14 (HLB 14), 55° C., read-out: Solubility): 633 mg/mL (≈ 1140 mM) | solubility [2, 10]: 184 mg/mL (≈ 330 mM) | solubility [2, 11]: 208 mg/mL (≈ 374 mM) | solubility [2, 12]: 401 mg/mL (≈ 721 mM) | solubility ([2]; Labrasol, oil or lipid, in Labrasol, RT, read-out: Solubility): > 400 mg/mL | solubility [2, 13]: 311 mg/mL (≈ 558 mM) | solubility [2, 14]: 129 mg/mL (≈ 231 mM) | solubility [2, 15]: 144 mg/mL (≈ 258 mM) | solubility [2, 16]: 273 mg/mL (≈ 491 mM) | solubility ([2]; ethanol, organic solvent or mixture, in ethanol, RT, read-out: Solubility): > 500 mg/mL | solubility ([2]; in Labrafil M1944Cs, RT): 192.6 mg/mL (≈ 346 mM) | solubility ([2]; in Miglyol 812N, RT): 141.6 mg/mL (≈ 254 mM) | solubility ([2]; in PEG 400, RT): 280.1 mg/mL (≈ 503 mM) | solubility ([2]; in soybean oil, RT): 87.7 mg/mL (≈ 158 mM) | solubility ([2]; oleic acid, oil or lipid, in Oleic acid, RT, read-out: Solubility): > 341 mg/mL | solubility [2, 17]: 18.2 mg/mL (≈ 32.7 mM) | solubility [2, 18]: 60.7 mg/mL (≈ 109 mM) | solubility ([2]; sweet almond oil, oil or lipid, in sweet almond oil, RT, read-out: Solubility): 45.2 mg/mL (≈ 81.2 mM) | percentage of active principle released (dissolution curves, in words) [3]: equivalent regardless of which nonionic surfactant is used | % of dronedarone at 180 min [3, 19]: 85.3% | % of dronedarone at 180 min [3, 20]: 76.38% | % of dronedarone at 180 min [3, 21]: 71.32% | % of dronedarone at 180 min [3, 22]: 72.89% | % of dronedarone at 180 min [3, 23]: 81.12%

CCCCc1oc2ccc(NS(C)(=O)=O)cc2c1C(=O)c1ccc(OCCCN(CCCC)CCCC)cc1.Cl [Dronedarone Hydrochloride, 2-n-butyl-3-[4-(3-di-n-butylaminopropoxy)benzoyl]-5-methylsulfonamidobenzofuran hydrochloride]
solubility [2, 5]: 10 mg/mL | solubility [2, 6]: 0.0353 mg/mL | solubility [2, 7]: 14.8 mg/mL | solubility [2, 8]: 0.0962 mg/mL | solubility [2, 9]: 0.0445 mg/mL | solubility [2, 10]: 0.0416 mg/mL | solubility [2, 11]: 0.504 mg/mL | solubility [2, 12]: 4.84 mg/mL | solubility [2, 13]: 2.09 mg/mL | solubility [2, 14]: 0.0251 mg/mL | solubility [2, 15]: 0.0409 mg/mL | solubility [2, 16]: 13.2 mg/mL | solubility [2, 17]: 15.8 mg/mL | solubility [2, 18]: 0.0231 mg/mL | percentage of active principle released (dissolution curves, in words) [3]: better profiles for an HLB between 15 and 25 | % of dronedarone at 180 min [3, 19]: 59.01% | % of dronedarone at 180 min [3, 20]: 49.1% | % of dronedarone at 180 min [3, 21]: 69.82% | % of dronedarone at 180 min [3, 22]: 90.49% | % of dronedarone at 180 min [3, 23]: 58.32% | behaviour on dilution to 1/10 with aqueous solution buffered at pH=7 ([4]; final pH of the medium=6.7): is precipitated | solubility ([4]; room temperature, pH=7): no more than 10 μg/ml
